Molecular target: T1, hCRTH2 (Homo sapiens, UniProt Q9Y5Y4)
T1 construct: expressed in transfected cells; host or cells: HEK (human embryonic kidney) cells expressing hCRTH2; membrane preparation
T1 sequence (Q9Y5Y4 1-395): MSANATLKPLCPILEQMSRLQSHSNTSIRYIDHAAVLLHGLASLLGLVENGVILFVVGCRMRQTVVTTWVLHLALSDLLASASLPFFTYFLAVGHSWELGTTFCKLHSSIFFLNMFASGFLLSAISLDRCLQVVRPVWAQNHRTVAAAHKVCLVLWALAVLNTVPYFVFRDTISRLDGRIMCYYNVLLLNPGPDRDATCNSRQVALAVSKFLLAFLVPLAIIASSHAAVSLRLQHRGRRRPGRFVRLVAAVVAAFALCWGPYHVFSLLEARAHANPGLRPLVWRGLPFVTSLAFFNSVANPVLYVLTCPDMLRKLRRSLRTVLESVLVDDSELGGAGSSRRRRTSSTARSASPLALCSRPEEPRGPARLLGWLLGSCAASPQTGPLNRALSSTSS
Test: Radioligand binding assay ([3H]PGD2 competition, HEK-hCRTH2 membranes)
Conditions: [3H]PGD2 binding, values in text
Method in brief: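 Membranes (8-20 μg protein) from HEK-hCRTH2 cells were incubated 60 min at room temperature with 3.0 nM [3H]PGD2 in 50 mM Tris-HCl pH 7.4, 1 mM EDTA, 2 mM MnCl2, 1% DMSO. Non-specific binding defined with 10 μM PGD2. Bound radioactivity counted after filtration.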

SMILES | Ki [nM]
C[C@@H](CCc1nc2cc(C(=O)N(C)Cc3ccc(F)cc3)ccc2nc1-c1ccccc1)CC(=O)O [compound 292] | 39.2

Same assay, conditions: [3H]PGD2 competition, Table B

SMILES | Ki [nM]
O=C(O)Cc1cccc(CCCc2nc3cc(C(=O)N4CC[C@@H](c5ccccc5)C4)ccc3nc2-c2ccc(F)cc2)c1 [compound 274, (S)-2-(3-(3-(3-(4-fluorophenyl)-7-(3-phenylpyrrolidine-1-carbonyl)quinoxalin-2-yl)propyl)phenyl)acetic acid] | 2.1 to 20
CN(Cc1ccc(F)cc1)C(=O)c1ccc2nc(-c3ccc(F)cc3)c(CCCc3cccc(CC(=O)O)c3)nc2c1 [compound 275, 2-(3-(3-(7-((4-fluorobenzyl)(methyl)carbamoyl)-3-(4-fluorophenyl)quinoxalin-2-yl)propyl)phenyl)acetic acid] | 20.1 to 200
C[C@H](CCc1nc2cc(C(=O)N[C@@H]3CCCc4ccccc43)ccc2nc1-c1ccccc1)CC(=O)O [compound 276, (R)-3-methyl-5-(3-phenyl-7-(((R)-1,2,3,4-tetrahydronaphthalen-1-yl)carbamoyl)quinoxalin-2-yl)pentanoic acid] | 2.1 to 20
C[C@H](CCc1nc2cc(C(=O)N[C@H]3CCCc4ccccc43)ccc2nc1-c1ccccc1)CC(=O)O [compound 277, (R)-3-methyl-5-(3-phenyl-7-(((S)-1,2,3,4-tetrahydronaphthalen-1-yl)carbamoyl)quinoxalin-2-yl)pentanoic acid] | 2.1 to 20
C[C@H](CCc1nc2cc(C(=O)N[C@H](C)c3ccc(F)cc3)ccc2nc1-c1ccccc1)CC(=O)O [compound 278, (R)-5-(7-(((R)-1-(4-fluorophenyl)ethyl)carbamoyl)-3-phenylquinoxalin-2-yl)-3-methylpentanoic acid] | 20.1 to 200
C[C@H](CCc1nc2cc(C(=O)N[C@@H](C)c3ccc(F)cc3)ccc2nc1-c1ccccc1)CC(=O)O [compound 279, (R)-5-(7-(((S)-1-(4-fluorophenyl)ethyl)carbamoyl)-3-phenylquinoxalin-2-yl)-3-methylpentanoic acid] | 20.1 to 200
C[C@H](CCc1nc2cc(C(=O)N3CCN(c4ccccc4)CC3)ccc2nc1-c1ccccc1)CC(=O)O [compound 280, (R)-3-methyl-5-(3-phenyl-7-(4-phenylpiperazine-1-carbonyl)quinoxalin-2-yl)pentanoic acid] | 701 to 2300
C[C@H](CCc1nc2cc(C(=O)N3CC(c4cccc(F)c4)C3)ccc2nc1-c1ccccc1)CC(=O)O [compound 281, (R)-5-(7-(3-(3-fluorophenyl)azetidine-1-carbonyl)-3-phenylquinoxalin-2-yl)-3-methylpentanoic acid] | 20.1 to 200
C[C@H](CCc1nc2cc(C(=O)N3CC[C@@H](c4ccccc4)C3)ccc2nc1-c1ccccc1)CC(=O)O [compound 282, (R)-3-methyl-5-(3-phenyl-7-((S)-3-phenylpyrrolidine-1-carbonyl)quinoxalin-2-yl)pentannic acid] | 201 to 700
C[C@H](CCc1nc2cc(C(=O)N(C)Cc3ccc(F)cc3)ccc2nc1-c1ccccc1)CC(=O)O [compound 283, (R)-5-(7-((4-fluorobenzyl)(methyl)carbamoyl)-3-phenylquinoxalin-2-yl)-3-methylpentanoic acid] | 201 to 700
O=C(O)CCCCc1nc2cc(C(=O)NC3CC(=O)Nc4ccc(F)cc43)ccc2nc1-c1ccccc1 (stereo not drawn) [compound 284, 5-(7-((6-fluoro-2-oxo-1,2,3,4-tetrahydroquinolin-4-yl)carbamoyl)-3-phenylquinoxalin-2-yl)pentanoic acid] | 2.1 to 20
Cc1ccc([C@@]23C[C@@H]2CN(C(=O)c2ccc4nc(-c5ccc(Cl)cc5)c(CCCCC(=O)O)nc4c2)C3)cc1 [compound 285, 5-(3-(4-chlorophenyl)-7-((1R,5S)-1-(p-tolyl)-3 - azabicyclo[3.1.0]hexane-3-carbonyl)quinoxalin-2-yl)pentanoic acid] | 2.1 to 20
C[C@@H](CCc1nc2cc(C(=O)N[C@H]3CCCc4ccccc43)ccc2nc1-c1ccccc1)CC(=O)O [compound 286, (S)-3-methyl-5-(3-phenyl-7-(((S)-1,2,3,4-tetrahydronaphthalen-1-yl)carbamoyl)quinoxalin-2-yl)pentanoic acid] | 20.1 to 200
C[C@@H](CCc1nc2cc(C(=O)N[C@H](C)c3ccc(F)cc3)ccc2nc1-c1ccccc1)CC(=O)O [compound 287, (S)-5-(7-(((R)-1-(4-fluorophenyl)ethyl)carbamoyl)-3-phenylquinoxalin-2-yl)-3-methylpentanoic acid] | 20.1 to 200
C[C@@H](CCc1nc2cc(C(=O)N[C@@H](C)c3ccc(F)cc3)ccc2nc1-c1ccccc1)CC(=O)O [compound 288, (S)-5-(7-(((S)-1-(4-fluorophenyl)ethyl)carbamoyl)-3-3-phenylquinoxalin-2-yl)-3-methylpentanoic acid] | 20.1 to 200
C[C@@H](CCc1nc2cc(C(=O)N3CCN(c4ccccc4)CC3)ccc2nc1-c1ccccc1)CC(=O)O [compound 289, (S)-3-methyl-5-(3-phenyl-7-(4-phenylpiperazine-1-carbonyl)quinoxalin-2-yl)pentanoic acid] | 20.1 to 200

SMILES | Ki [nM]
C[C@@H](CCc1nc2cc(C(=O)N3CC(c4cccc(F)c4)C3)ccc2nc1-c1ccccc1)CC(=O)O [compound 290, (S)-5-(7-(3-(3-fluorophenyl)azetidine-1-carbonyl)-3-phenylquinoxalin-2-yl)-3-methylpentanoic acid] | 2.1 to 20
C[C@@H](CCc1nc2cc(C(=O)N3CC[C@@H](c4ccccc4)C3)ccc2nc1-c1ccccc1)CC(=O)O [compound 291, (S)-3-methyl-5-(3-phenyl-7-((S)-3-phenylpyrrolidine-1-carbonyl)quinoxalin-2-yl)pentanoic acid] | 2.1 to 20
C[C@@H](CCc1nc2cc(C(=O)N(C)Cc3ccc(F)cc3)ccc2nc1-c1ccccc1)CC(=O)O [compound 292] | 20.1 to 200
C[C@@H](CCc1nc2cc(C(=O)N[C@@H]3CCCc4ccccc43)ccc2nc1-c1ccccc1)CC(=O)O [compound 293, (S)-3-methyl-S-(3-phenyl-7-(((R)-1,2,3,4-tetrahydronaphthalen-1-yl)carbamoyl)quinoxalin-2-yl)pentanoic acid] | 2.1 to 20
O=C(O)CCCCc1nc2cc(C(=O)NC3CCCOc4ccccc43)ccc2nc1-c1ccccc1 (stereo not drawn) [compound 294, 5-(3-phenyl-7-((2,3,4,5-tetrahydrobenzo[b]oxepin-5-yl)carbamoyl)quinoxalin-2-yl)pentanoic acid] | 2.1 to 20
CC1(C)CC(NC(=O)c2ccc3nc(-c4ccccc4)c(CCCCC(=O)O)nc3c2)c2ccccc2O1 (stereo not drawn) [compound 295, 5-(7((2,2-dimethylchroman-4-yl)carbamoyl)-3-phenylquinoxalin-2-yl)pentanoic acid] | 2.1 to 20
CC1(C)CCC(NC(=O)c2ccc3nc(-c4ccccc4)c(CCCCC(=O)O)nc3c2)c2ccccc21 (stereo not drawn) [compound 296, 5-(7-((4,4-dimethyl-1,2,3,4-tetrahydronaphthalen-1-yl)carbamoyl)-3-phenylquinoxalin-2-yl)pentanoic acid] | 2.1 to 20
O=C(O)CCCCc1nc2cc(C(=O)N3CCC4(CCCc5ccccc54)C3)ccc2nc1-c1ccccc1 (stereo not drawn) [compound 297, 5-(7-(3,4-dihydro-2H-spiro[naphthalene-1,3′-pyrrolidin]-1′-ylcarbonyl)-3-phenylquinoxalin-2-yl)pentanoic acid] | 2.1 to 20
O=C(O)CCCCc1nc2cc(C(=O)N3CCC4(CC3)CNC(=O)c3ccccc34)ccc2nc1-c1ccccc1 [compound 298, 5-(7-(i-oxo-2,3-dihydro-1H-spiro[isoquinoline-4,4′-piperidin]-1′-ylcarbonyl)-3-phenylquinoxalin-2-yl)pentanoic acid] | 2.1 to 20
O=C(O)CCCCc1nc2cc(C(=O)N3CCC4(CC3)NC(=O)Cc3ccccc34)ccc2nc1-c1ccccc1 [compound 299, 5-(7-(3-oxo-3,4-dihydro-2H-spiro[isoquinoline-1,4′-piperidin]-1′-ylcarbonyl)-3-phenylquinoxalin-2-yl)pentanoic acid] | 2.1 to 20
O=C(O)CCCCc1nc2cc(C(=O)N3CCC4(CC3)Cc3ccccc3C(=O)N4)ccc2nc1-c1ccccc1 [compound 300, 5-(7-(1-oxo-2,4-dihydro-1H-spiro[isoquinoline-3,4′-piperidin]-1′-ylcarbonyl)-3-phenylquinoxalin-2-yl)pentanoic acid] | 2.1 to 20
O=C(O)CCCCc1nc2cc(C(=O)N[C@@H]3CCSc4ccccc43)ccc2nc1-c1ccccc1 [compound 301, (R)-5-(3-phenyl-7-(thiochroman-4-ylcarbamoyl)quinoxalin-2-yl)pentanoic acid] | 2.1 to 20
O=C(O)CCCCc1nc2cc(C(=O)N3CCN(Cc4ccccc4)CC3)ccc2nc1-c1ccccc1 [compound 302, 5-(7-(4-benzylpiperazine-1-carbonyl)-3-phenylquinoxalin-2-yl)pentanoic acid] | 2.1 to 20
N#Cc1cccnc1N1CCN(C(=O)c2ccc3nc(-c4ccccc4)c(CCCCC(=O)O)nc3c2)CC1 [compound 303, 5-(7-(4-(3-cyanopyridin-2-yl)piperazine-1-carbonyl)-3-phenylquinoxalin-2-yl)pentanoic acid] | 2.1 to 20
O=C(O)CCCCc1nc2cc(C(=O)N3CCN(c4c(Cl)cncc4Cl)CC3)ccc2nc1-c1ccccc1 [compound 304, 5-(7-(4-(3,5-dichloropyridin-4-yl)piperazine-1-carbonyl)-3-phenylquinoxalin-2-yl)pentanoic acid] | 2.1 to 20
O=C(O)CCCCc1nc2cc(C(=O)N3CCN(c4ccccc4C(F)(F)F)CC3)ccc2nc1-c1ccccc1 [compound 305, 5-(3-phenyl-7-(4-(2-(trifluoromethyl)phenyl)piperazine-1-carbonyl)quinoxalin-2-yl)pentanoic acid] | 2.1 to 20

Source: patent publication US9469615B2, “Quinoxalines and AZA-quinoxalines as CRTH2 receptor modulators” (Merck Sharp & Dohme Corp., priority 2010, dated 2016)
